Test results as given in patent publication US20070037253A1, “Methods and compositions for treatment of arthritis and cancer” (priority 2003, published 2007).
Entries after “also recorded” stand apart in the source; their conditions may differ. Where a SMILES comes first, the peptide text is derived from it.

Assays:
Type in all cases: biochemical
MMP-2 = target: T1, MMP-2 (Homo sapiens, UniProt P08253); assay: Gelatin zymography of human synovial fluid pre-incubated with inhibitors; conditions: 5 or 10 μM, pre-incubated 37° C. 1 h
T1 construct: from tissue; host or cells: human synovial fluid
T1 sequence (P08253 110-660): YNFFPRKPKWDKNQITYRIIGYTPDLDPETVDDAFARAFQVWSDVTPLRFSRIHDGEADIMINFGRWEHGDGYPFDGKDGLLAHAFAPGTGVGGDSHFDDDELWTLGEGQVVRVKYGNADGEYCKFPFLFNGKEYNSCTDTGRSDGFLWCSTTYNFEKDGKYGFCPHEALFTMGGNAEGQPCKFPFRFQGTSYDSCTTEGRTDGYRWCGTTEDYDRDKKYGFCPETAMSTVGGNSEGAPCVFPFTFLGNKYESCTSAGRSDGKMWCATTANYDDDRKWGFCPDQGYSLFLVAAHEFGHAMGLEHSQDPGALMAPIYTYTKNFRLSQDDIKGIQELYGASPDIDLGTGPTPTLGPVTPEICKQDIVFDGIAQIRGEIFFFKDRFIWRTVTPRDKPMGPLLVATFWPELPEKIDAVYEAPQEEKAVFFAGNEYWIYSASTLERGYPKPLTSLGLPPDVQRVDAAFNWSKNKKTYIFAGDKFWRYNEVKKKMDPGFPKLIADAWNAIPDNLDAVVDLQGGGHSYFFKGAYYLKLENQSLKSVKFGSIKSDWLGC
Experimental: (§1) (A) Samples containing human synovial fluid (5 μL) and 5 or 10 μM of peptides were pre-incubated at 37° C. for 1 h in Tris-HCl buffer prior to electrophoresis on 10% SDS-PAGE gel containing gelatin (0.1%). […] (B) The mean density (OD/mm2)±SD (n=3), representing MMP-2 activity, obtained by scanning the zymograms using the GS-710 calibrated imaging densitometer (Bio Rad, USA).
(§2) Gelatin zymography: human synovial fluid, purified human recombinant MMP-2 and -9 or APMA-activated concentrated culture supernatant samples (10 μL) was mixed (1:1) with Laemmli sample buffer, loaded on 4% acrylamide stacking gel and electrophoresed (120 V) at 4° C. on a 10% acrylamide-resolving minigel containing 0.1% gelatin. After electrophoresis for 1 h, the gels were soaked in 2.5% Triton X-100 on a shaker for 1 h, changing the solution after 30 min, to eliminate SDS. After overnight incubation in zymogen activation buffer [50 mM Tris-HCl, pH 7.5, containing 10 mM CaCl2 and 5 mM ZnCl2] at 37° C., the gels were rinsed in distilled water, and stained for 3 hr with […], after which clear bands of digested gelatin were clearly visible. The gels were briefly rinsed in distilled water and scanned by the Bio-Rad GS-710 Calibrated Imaging Densitometer.

MMP-9 = target: T2, MMP-9 (Homo sapiens, UniProt P14780); assay: as above; conditions: co-incubated 1 h
T2 construct: Samples containing human synovial fluid (5 μL) and 5 or 10 μM of peptides were pre-incubated; from tissue; host or cells: human synovial fluid
T2 sequence (P14780 94-707): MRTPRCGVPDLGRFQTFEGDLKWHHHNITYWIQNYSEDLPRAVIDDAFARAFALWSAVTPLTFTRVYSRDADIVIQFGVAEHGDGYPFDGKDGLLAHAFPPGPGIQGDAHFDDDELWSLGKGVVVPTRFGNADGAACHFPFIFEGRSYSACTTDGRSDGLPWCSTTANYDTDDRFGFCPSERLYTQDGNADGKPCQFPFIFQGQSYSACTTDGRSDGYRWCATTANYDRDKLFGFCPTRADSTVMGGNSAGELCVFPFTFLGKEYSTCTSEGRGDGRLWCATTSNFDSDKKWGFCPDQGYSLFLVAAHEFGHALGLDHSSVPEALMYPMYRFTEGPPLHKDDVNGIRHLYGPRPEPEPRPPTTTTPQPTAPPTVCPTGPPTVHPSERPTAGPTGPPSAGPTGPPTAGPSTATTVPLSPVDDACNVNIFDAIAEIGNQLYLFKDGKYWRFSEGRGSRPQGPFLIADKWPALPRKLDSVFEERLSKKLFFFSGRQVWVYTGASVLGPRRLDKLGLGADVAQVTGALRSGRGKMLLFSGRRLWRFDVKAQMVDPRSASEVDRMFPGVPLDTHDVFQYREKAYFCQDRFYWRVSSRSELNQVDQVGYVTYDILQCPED
Experimental: as §1, §2

[1] = target: T3, purified human synovial sPLA2 (human Type IIA sPLA2) (Homo sapiens, UniProt P14555); assay: sPLA2 inhibition, 3H-arachidonate-labelled E. coli membrane assay; conditions: fixed peptide concentration (5 μM); 3H-labelled E. coli membrane assay; read-out: % Inhibition (mean ± SD)
T3 construct: purchased Cayman Chemicals, USA
T3 sequence (P14555 21-144): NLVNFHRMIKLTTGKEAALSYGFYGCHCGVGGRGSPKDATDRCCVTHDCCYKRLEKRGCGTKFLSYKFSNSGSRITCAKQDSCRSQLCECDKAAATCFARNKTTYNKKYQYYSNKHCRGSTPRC
Experimental: In brief, [^3H] arachidonate-labeled E. coli membranes (0.005 mCi/mL; 5.8 μCi/μmol, NEN) were used as substrate, and 100 mM Tris-HCl—25 mM CaCl2, pH 7.5 solution as an assay buffer. The reaction mixture contained 20 μL of substrate, 0.85 pmole of purified human synovial sPLA2 (human Type IIA sPLA2, Cayman Chemicals, USA), and an increasing concentrations of the family of synthetic peptides derived from the sequence of PIP. The final volume of the reaction mixture was adjusted to 250 μL with an assay buffer. After incubation of the mixture (37° C., 1 h) and termination of the reaction with 750 μL of chilled PBS containing 1% BSA, microfuge tubes containing the samples were centrifuged (10,000 g at 4° C. for 15 min), and 500 μL aliquots of the supernatant taken to measure the amount of [^3H]-labeled arachidonate released from the E. coli membrane using liquid scintillation counting (Multipurpose Scintillation Counter LS 6500; Beckman, USA). As controls, sPLA2 was pre-incubated with the assay buffer alone. All samples, including controls, were performed in triplicate and plotted as the percentage inhibition relative to negative controls.
A sigmoid dose response curve was generated to allow calculation of the IC50 values. All samples were performed in triplicate. Results were analyzed by nonlinear regression with GraphPad Prism (version 2.01) and expressed as the percentage of inhibition relative to control values.

## CC[C@H](C)[C@H](NC(=O)[C@H](CC(=O)O)NC(=O)[C@@H](N)C(C)C)C(=O)N[C@@H](Cc1c[nH]cn1)C(=O)N[C@H](C(=O)N[C@@H](Cc1c[nH]c2ccccc12)C(=O)N[C@@H](CC(=O)O)C(=O)NCC(=O)N[C@H](C(=O)N[C@H](C(=O)N[C@@H](CC(=O)O)C(=O)N[C@H](C(=O)N[C@@H](Cc1c[nH]cn1)C(=O)N[C@H](C(=O)N[C@@H](Cc1c[nH]c2ccccc12)C(=O)N[C@@H](CC(=O)O)C(=O)NCC(=O)N[C@H](C(=O)O)C(C)C)C(C)C)[C@@H](C)CC)C(C)C)C(C)C)C(C)C [PIP [59-67] dimer] (H-VDIHVWDGVVDIHVWDGV-OH; N-terminus and C-terminus assumed)
MMP-2
  MMP-2 gelatinase activity (zymogram densitometry) vs control: did not show any significant difference from the control; also recorded: insignificant
MMP-9
  MMP-9 gelatinase activity vs control: insignificant
[1]
  inhibition at 5 µM: 74.5 ± 4.21%
